Literature values as cited in patent US10179139B2, “Pharmaceutical composition” (CIPLA Limited, priority 2010, dated 2019).

Conditions: in vivo

| SMILES | duration of action |
| --- | --- |
| C[N+]1(C)[C@@H]2C[C@@H](OC(=O)C(O)(c3cccs3)c3cccs3)C[C@H]1[C@@H]1O[C@@H]12 [Tiotropium, (1α, 2β, 4β, 5α, 7β)-7-[(Hydroxydi-2-thienylacetyl)oxy]-9,9-dimethyl-3-oxa-9-azoniatricyclo[3.3.1.0^2,4]nonane bromide monohydrate] | up to 32 hours |
| CCc1cc2c(cc1CC)CC(NC[C@H](O)c1ccc(O)c3[nH]c(=O)ccc13)C2 [Indacaterol, (R)-5-[2-[(5,6-Diethyl-2,3-dihydro-1H-inden-2-yl)amino]-1-hydroxyethyl]-8-hydroxyquinolin-2(1H)-one] | more than 24 hrs |
